Assay results taken from patent US20240041042A1, “1-(PYRIDYL)-5-AZINYLPYRAZOLE DERIVATIVES, AND THEIR USE FOR CONTROL OF UNDESIRED PLANT GROWTH” (Bayer Aktiengesellschaft, priority 2020, published 2024).

Key:
Assay type in all cases: in vivo
[1] = system: Alopecurus myosuroides (ALOMY); assay: Pre-emergence herbicidal action against ALOMY; conditions: scored visually after about 3 weeks, 100% = plants have died
In short: (§1)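 Application rates ran to 320 g/ha or lower, with several dosages tested on the same weeds. The compound, as wettable powder or emulsion concentrate, is sprayed pre-emergence onto soil over sown seeds; greenhouse growth follows, and effect is rated visually after roughly 3 weeks.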

[2] = system: Echinochloa crus-galli (ECHCG); assay: Pre-emergence herbicidal action against ECHCG
In short: as §1

Lolium rigidum (LOLRI) = assay: Pre-emergence herbicidal action against LOLRI
In short: as §1

[3] = system: Matricaria inodora (MATIN); assay: Pre-emergence herbicidal action against MATIN
In short: as §1

[4] = system: Pharbitis purpurea (PHBPU); assay: Pre-emergence herbicidal action against PHBPU
In short: as §1

[5] = system: Verconica persica (VERPE); assay: Pre-emergence herbicidal action against VERPE
In short: as §1

[6] = system: Abutilon theophrasti (ABUTH); assay: Post-emergence herbicidal action against ABUTH; conditions: visual rating about 3 weeks after treatment vs untreated controls (100% = plants have died, 0% = like control plants)
In short: (§2)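 Rates were 320 g/ha or below, applied as aqueous WP/EC spray with 0.5% additive (600 l/ha) onto one-leaf-stage plants. About 3 weeks later in the greenhouse, damage was scored visually against untreated plants on a 0–100% scale, where 100% means plants died.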

[7] = system: Amaranthus retroflexus (AMARE); assay: Post-emergence herbicidal action against AMARE
In short: as §2

[8] = system: Verconica persica (VERPE); assay: Post-emergence herbicidal action against VERPE
In short: as §2

Viola tricolor (VIOTR) = assay: Post-emergence herbicidal action against VIOTR
In short: as §2

[9] = 80 g/ha, visual rating about 3 weeks after treatment vs untreated controls (100% = plants have died, 0% = like control plants)
[10] = 320 g/ha, visual rating about 3 weeks after treatment

COC(=O)[C@@H](C)Oc1nn(-c2ncccc2F)c(-c2ccc(F)nc2)c1C(F)(F)F [Example I-331]
Pre-emergence action against ALOMY ([1]; 80 g/ha): 100%
Pre-emergence action against ALOMY ([1]; 320 g/ha): 100%
Pre-emergence action against ECHCG in % ([2]; dosage 80 g/ha): 80%
Pre-emergence action against ECHCG in % ([2]; dosage 320 g/ha): 100%
Pre-emergence action against LOLRI in % (Lolium rigidum (LOLRI); dosage 80 g/ha): 90%
Pre-emergence action against LOLRI in % (Lolium rigidum (LOLRI); dosage 320 g/ha): 100%
Pre-emergence action against MATIN in % ([3]; dosage 80 g/ha): 100%
Pre-emergence action against MATIN in % ([3]; dosage 320 g/ha): 100%
Pre-emergence action against PHBPU in % ([4]; dosage 320 g/ha): 90%
Pre-emergence action against VERPE in % ([5]; dosage 80 g/ha): 100%
Pre-emergence action against VERPE in % ([5]; dosage 320 g/ha): 100%
Post-emergence action against ABUTH in % ([6]; 80 g/ha): 90%
Post-emergence action against ABUTH in % ([6]; 320 g/ha): 90%
Post-emergence action against AMARE in % [7, 9]: 80%
Post-emergence action against AMARE in % [7, 10]: 80%
Post-emergence action against VERPE in % ([8]; 320 g/ha, VERPE): 90%
Post-emergence action against VERPE in % ([8]; dosage 80 g/ha): 90%
Post-emergence action against VIOTR in % (Viola tricolor (VIOTR); 80 g/ha): 80%
Post-emergence action against VIOTR in % (Viola tricolor (VIOTR); 320 g/ha): 80%

COC(=O)[C@@H](C)Oc1nn(-c2ncccc2F)c(-c2ccc(F)nc2)c1I [Example I-341]
Pre-emergence action against ALOMY ([1]; 320 g/ha): 100%
Pre-emergence action against ECHCG in % ([2]; dosage 80 g/ha): 80%
Pre-emergence action against ECHCG in % ([2]; dosage 320 g/ha): 100%
Pre-emergence action against LOLRI in % (Lolium rigidum (LOLRI); dosage 80 g/ha): 100%
Pre-emergence action against LOLRI in % (Lolium rigidum (LOLRI); dosage 320 g/ha): 100%
Pre-emergence action against MATIN in % ([3]; dosage 80 g/ha): 90%
Pre-emergence action against MATIN in % ([3]; dosage 320 g/ha): 100%
Pre-emergence action against PHBPU in % ([4]; dosage 320 g/ha): 90%
Pre-emergence action against VERPE in % ([5]; dosage 320 g/ha): 100%
Post-emergence action against ABUTH in % ([6]; 80 g/ha): 80%
Post-emergence action against ABUTH in % ([6]; 320 g/ha): 90%
Post-emergence action against AMARE in % [7, 9]: 80%
Post-emergence action against AMARE in % [7, 10]: 80%
Post-emergence action against VERPE in % ([8]; 320 g/ha, VERPE): 90%
Post-emergence action against VERPE in % ([8]; dosage 80 g/ha): 90%
Post-emergence action against VIOTR in % (Viola tricolor (VIOTR); 80 g/ha): 80%
Post-emergence action against VIOTR in % (Viola tricolor (VIOTR); 320 g/ha): 80%

C[C@@H](Oc1nn(-c2ncccc2F)c(-c2ccc(F)nc2)c1C1CC1)C(=O)O [Example I-342]
Pre-emergence action against ALOMY ([1]; 80 g/ha): 100%
Pre-emergence action against ALOMY ([1]; 320 g/ha): 100%
Pre-emergence action against ECHCG in % ([2]; dosage 80 g/ha): 100%
Pre-emergence action against ECHCG in % ([2]; dosage 320 g/ha): 100%
Pre-emergence action against LOLRI in % (Lolium rigidum (LOLRI); dosage 80 g/ha): 100%
Pre-emergence action against LOLRI in % (Lolium rigidum (LOLRI); dosage 320 g/ha): 100%
Pre-emergence action against MATIN in % ([3]; dosage 80 g/ha): 100%
Pre-emergence action against MATIN in % ([3]; dosage 320 g/ha): 100%
Pre-emergence action against PHBPU in % ([4]; dosage 80 g/ha): 80%
Pre-emergence action against PHBPU in % ([4]; dosage 320 g/ha): 90%
Pre-emergence action against VERPE in % ([5]; dosage 80 g/ha): 90%
Pre-emergence action against VERPE in % ([5]; dosage 320 g/ha): 100%
Post-emergence action against ABUTH in % ([6]; 80 g/ha): 80%
Post-emergence action against ABUTH in % ([6]; 320 g/ha): 90%
Post-emergence action against AMARE in % [7, 9]: 90%
Post-emergence action against AMARE in % [7, 10]: 90%
Post-emergence action against VERPE in % ([8]; 320 g/ha, VERPE): 90%
Post-emergence action against VERPE in % ([8]; dosage 80 g/ha): 90%
Post-emergence action against VIOTR in % (Viola tricolor (VIOTR); 80 g/ha): 90%
Post-emergence action against VIOTR in % (Viola tricolor (VIOTR); 320 g/ha): 90%

C[C@@H](Oc1nn(-c2ncccc2F)c(-c2ccc(F)nc2)c1I)C(=O)O [Example I-343]
Pre-emergence action against ALOMY ([1]; 80 g/ha): 90%
Pre-emergence action against ALOMY ([1]; 320 g/ha): 90%
Pre-emergence action against ECHCG in % ([2]; dosage 320 g/ha): 100%
Pre-emergence action against LOLRI in % (Lolium rigidum (LOLRI); dosage 80 g/ha): 90%
Pre-emergence action against LOLRI in % (Lolium rigidum (LOLRI); dosage 320 g/ha): 90%
Pre-emergence action against MATIN in % ([3]; dosage 320 g/ha): 100%
Pre-emergence action against PHBPU in % ([4]; dosage 80 g/ha): 80%
Pre-emergence action against PHBPU in % ([4]; dosage 320 g/ha): 90%
Pre-emergence action against VERPE in % ([5]; dosage 320 g/ha): 100%
Post-emergence action against ABUTH in % ([6]; 80 g/ha): 80%
Post-emergence action against ABUTH in % ([6]; 320 g/ha): 90%
Post-emergence action against AMARE in % [7, 9]: 80%
Post-emergence action against AMARE in % [7, 10]: 80%
Post-emergence action against VERPE in % ([8]; 320 g/ha, VERPE): 80%
Post-emergence action against VERPE in % ([8]; dosage 80 g/ha): 80%
Post-emergence action against VIOTR in % (Viola tricolor (VIOTR); 80 g/ha): 80%
Post-emergence action against VIOTR in % (Viola tricolor (VIOTR); 320 g/ha): 80%

CCOC(=O)[C@@H](C)Oc1nn(-c2ncccc2F)c(-c2ccc(F)nc2)c1C1CC1 [Example I-375]
Pre-emergence action against ALOMY ([1]; 80 g/ha): 80%
Pre-emergence action against ALOMY ([1]; 320 g/ha): 90%
Pre-emergence action against ECHCG in % ([2]; dosage 80 g/ha): 80%
Pre-emergence action against ECHCG in % ([2]; dosage 320 g/ha): 100%
Pre-emergence action against LOLRI in % (Lolium rigidum (LOLRI); dosage 80 g/ha): 100%
Pre-emergence action against LOLRI in % (Lolium rigidum (LOLRI); dosage 320 g/ha): 100%
Pre-emergence action against MATIN in % ([3]; dosage 80 g/ha): 100%
Pre-emergence action against MATIN in % ([3]; dosage 320 g/ha): 100%
Pre-emergence action against PHBPU in % ([4]; dosage 80 g/ha): 80%
Pre-emergence action against PHBPU in % ([4]; dosage 320 g/ha): 90%
Pre-emergence action against VERPE in % ([5]; dosage 80 g/ha): 100%
Pre-emergence action against VERPE in % ([5]; dosage 320 g/ha): 100%
Post-emergence action against ABUTH in % ([6]; 80 g/ha): 90%
Post-emergence action against ABUTH in % ([6]; 320 g/ha): 90%
Post-emergence action against AMARE in % [7, 9]: 80%
Post-emergence action against AMARE in % [7, 10]: 80%
Post-emergence action against VERPE in % ([8]; 320 g/ha, VERPE): 90%
Post-emergence action against VERPE in % ([8]; dosage 80 g/ha): 80%
Post-emergence action against VIOTR in % (Viola tricolor (VIOTR); 80 g/ha): 80%
Post-emergence action against VIOTR in % (Viola tricolor (VIOTR); 320 g/ha): 90%
